Data as given in patent publication US20020010210A1, “PHARMACEUTICAL PREPARATION AND METHOD FOR TREATING CANCER” (priority 1997, published 2002).
Where a name gives a salt, the structure may show the parent alone. Numbered stars: 1 amine (or outer) side, 2 acyl side, 3 side chain; on linkers, the order of the positions; unused ones are H or OH. Bridge positions count the residues as written; N and C are the ends. Square brackets hold non-standard residues; d marks the D form. Ends that are not written are not given here. Peptide text beside a SMILES is read from it. I, II: the chains in the order shown. Actinocin(9to1) = Cc1c2oc3c(C)ccc(C(=O)[*:1])c3nc-2c(C(=O)[*:2])c(N)c1=O; NMeV = CN[C@H](C(=O)O)C(C)C; Sar = CNCC(=O)O

What was measured:
[1] = system: spontaneous breast cancer rat cells (SST-2); assay: Lung metastasis of SST-2 in SHR rats, ascorbic acid derivative combined with known anticancer agent (Example 4); type: in vivo
Experimental: 1×100,000 spontaneous breast cancer rat cells (SST-2) were subcutaneously implanted into the back of a rat (SHR rat) (5 rats per group) suffering from spontaneous hypertension. After 35 days, the rats were sacrificed, and the number of colonies formed were measured to examine the degree of metastasis of SST-2 to the lung.
The ascorbic acid derivatives used were L-ascorbic acid-2-phosphate-6-palmitate, L-ascorbic acid-6-benzoate (reference compound) and magnesium L-ascorbic acid-2-phosphate.
Each of the groups treated with an ascorbic acid derivative was subjected to a test of administering the ascorbic acid derivative alone and to a test of administering the ascorbic acid derivative in combination with a known anticancer agent as shown in Table 4. Furthermore, tests of administering the anticancer agents alone were conducted. Over the period of from 7 days prior to implantation to 34 days after the implantation, the ascorbic acid derivative was injected through a vein in the tail region at a dose of 1 mg/1 day/rat. Each of the known anticancer agents was perorally administered in a minimum dose by reference to the concentration for a single use case described in the publication, Tyakuhin Yoran (Medical Product Handbook), 4th Edition, pp. 1474-1509, Yakugyo Jiho-Sha (1989), and the number of colonies formed after metastasis was compared.

[2] = system: spontaneous breast cancer rat cells (SST-2); assay: as above; type: in vivo; remark: listed apart in the source
[3] = ascorbic acid derivative 1 mg/1 day/rat tail vein, day -7 to day 34, known anticancer agent perorally in minimum dose, colonies after 35 days

| Molecule | Cancer metastasis inhibitory effect of combination with L-Ascorbic Acid-2-Phosphate-6-Palmitate versus each agent alone [1, 3] | Cancer metastasis inhibitory effect of combination with L-Ascorbic Acid-2-Phosphate-6-Benzoate versus each agent alone [2, 3] | Cancer metastasis inhibitory effect of combination with L-Ascorbic Acid-6-Palmitate versus each agent alone [2, 3] | Cancer metastasis inhibitory effect of combination with L-Ascorbic Acid-2-Phosphate-6-Palmitate versus each agent alone ([1]; rat, in vivo) | Cancer metastasis inhibitory effect of combination with L-Ascorbic Acid-2-Phosphate-6-Benzoate versus each agent alone ([2]; rat, in vivo) | Cancer metastasis inhibitory effect of combination with L-Ascorbic Acid-6-Palmitate versus each agent alone ([2]; rat, in vivo) |
| --- | --- | --- | --- | --- | --- | --- |
| lentinan | + | + | − |  |  |  |
| O=P1(N(CCCl)CCCl)NCCCO1 (stereo not drawn) [cyclophosphamido] | + | + | − |  |  |  |
| CC[C@]1(O)C[C@@H]2CN(CCc3c([nH]c4ccccc34)[C@@](C(=O)OC)(c3cc4c(cc3OC)N(C)[C@H]3[C@@](O)(C(N)=O)[C@H](O)[C@]5(CC)C=CCN6CC[C@]43[C@@H]65)C2)C1 [vindesine sulfate] | + | + | − |  |  |  |
| NC(Cc1ccc(N(CCCl)CCCl)cc1)C(=O)O (stereo not drawn) [merphalan] | + | + | − |  |  |  |
| CC[C@@]1(O)C[C@H](O[C@H]2C[C@H](N(C)C)[C@H](O[C@H]3C[C@H](O)[C@H](O[C@H]4CCC(=O)[C@H](C)O4)[C@H](C)O3)[C@H](C)O2)c2c(cc3c(c2O)C(=O)c2c(O)cccc2C3=O)[C@H]1C(=O)OC [aclarubicin hydrochloride] |  |  |  | + | + | − |
| Cc1ncc(CNC(=O)N(CCCl)N=O)c(N)n1 [nimustine hydrochloride] |  |  |  | + | + | − |
| CN(C)/N=N/c1[nH]cnc1C(N)=O [decarbazine] | + | + | − |  |  |  |
| neocarzinostatin | + | + | − |  |  |  |
| O=P1(NCCCl)OCCCN1CCCl (stereo not drawn) [ifosfamide] |  |  |  | + | + | − |
| Cc1c2oc3c(C)ccc(C(=O)N[C@@H]4C(=O)N[C@H](C(C)C)C(=O)N5CCC[C@H]5C(=O)N(C)CC(=O)N(C)[C@@H](C(C)C)C(=O)O[C@@H]4C)c3nc-2c(C(=O)N[C@@H]2C(=O)N[C@H](C(C)C)C(=O)N3CCC[C@H]3C(=O)N(C)CC(=O)N(C)[C@@H](C(C)C)C(=O)O[C@@H]2C)c(N)c1=O [actinomycin (D)] (I: T[dV]P[Sar][NMeV] / II: T[dV]P[Sar][NMeV]; ester I:1-I:C, II:1-II:C; linker I:N-II:N via Actinocin(9to1)) |  |  |  | + | + | − |
| COC1(O[C@H]2CC[C@H]3[C@@H]4CC[C@H]5C[C@@H]6S[C@@H]6C[C@]5(C)[C@H]4CC[C@]23C)CCCC1 [mebitiostan] | + | + | − |  |  |  |
| CCCCCCCCCCCCCCCCCCCCCC(=O)Nc1ccn([C@@H]2O[C@H](CO)[C@@H](O)[C@@H]2O)c(=O)n1 [enocitabine] | + | ± | − |  |  |  |
| OC[C@H]1O[C@@H](n2cnc3c(S)ncnc32)[C@H](O)[C@@H]1O [thioinosine] | + | + | − |  |  |  |
| C[C@]12CC[C@@H]3c4ccc(OC(=O)N(CCCl)CCCl)cc4CC[C@H]3[C@@H]1CC[C@@H]2OP(=O)(O)O [Estracyt (R)] | + | + | − |  |  |  |
| CNNCc1ccc(C(=O)NC(C)C)cc1 [procarbazine hydrochloride] | + | + | − |  |  |  |
| pleomycin hydrochloride |  |  |  | + | + | − |
| COc1cccc2c1C(=O)c1c(O)c3c(c(O)c1C2=O)C[C@@](O)(C(=O)CO)C[C@@H]3O[C@H]1C[C@H](N)[C@H](O)[C@H](C)O1 [doxorubicin hydrochloride] | + | + | − |  |  |  |
| Nc1ccn([C@@H]2O[C@H](CO)[C@@H](O)[C@@H]2O)c(=O)n1 [cytarabine] | + | + | − |  |  |  |
| CC/C(=C(/CC)c1ccc(OP(=O)(O)O)cc1)c1ccc(OP(=O)(O)O)cc1 [HONPAN] | + | + | − |  |  |  |
| PLEOMYCIN sulfate |  |  |  | + | + | − |
| CDPGYIGSR-NH2 [CDPGYGSR-NH2] |  |  |  | + | + | − |
| CC/C(=C(\c1ccccc1)c1ccc(OCCN(C)C)cc1)c1ccccc1 [tamoxifen citrate] | + | + | − |  |  |  |
| CO[C@@]12[C@H](COC(N)=O)C3=C(C(=O)C(C)=C(N)C3=O)N1C[C@@H]1N[C@@H]12 [mitomycin C] |  |  |  | + | + | − |
| CN(Cc1cnc2nc(N)nc(N)c2n1)c1ccc(C(=O)N[C@@H](CCC(=O)O)C(=O)O)cc1 [methotrexate] | + | + | − |  |  |  |
| CC[C@]1(O)C[C@H]2CN(CCc3c([nH]c4ccccc34)[C@@](C(=O)OC)(c3cc4c(cc3OC)N(C=O)[C@H]3[C@@](O)(C(=O)OC)[C@H](OC(C)=O)[C@]5(CC)C=CCN6CC[C@]43[C@@H]65)C2)C1 [vincristine sulfate] | + | + | − |  |  |  |
| C[C@]12C[C@H]3S[C@H]3C[C@@H]1CC[C@@H]1[C@@H]2CC[C@]2(C)[C@@H](O)CC[C@@H]12 [epitiostanol] |  |  |  | + | + | − |
| vebromycin sulfate |  |  |  | + | + | − |
| peptidoglycan | + | + | − |  |  |  |
